Results from patent US20250179103A1, “6-OXODECAHYDROPYRROLO[1,2-A][1,5]DIAZOCINE AND 6-OXODECAHYDRO-4H-PYRROLO[2,1-D][1,5]THIAZOCINE DERIVATIVES AS STAT3 AND STAT6 MODULATORS FOR THE TREATMENT OF CANCER AND INFLAMMATORY CONDITIONS” (Recludix Pharma, Inc., priority 2022, published 2025).
pIC50: −log10 of the molar value.

What was measured:
[1] = target: T1, Recombinant STAT3 protein (STAT3(G127-I722)) (Homo sapiens, UniProt P40763); experiment: STAT3 Fluorescence Polarization (FP) Assay; format: binding; details: STAT3(G127-I722) 25 nM, probe 5-FAM-GpYLPQTV-NH2 2 nM, 45-minute incubation
T1 construct: Recombinant STAT3 protein (STAT3(G127-I722))
T1 sequence (P40763 127-722): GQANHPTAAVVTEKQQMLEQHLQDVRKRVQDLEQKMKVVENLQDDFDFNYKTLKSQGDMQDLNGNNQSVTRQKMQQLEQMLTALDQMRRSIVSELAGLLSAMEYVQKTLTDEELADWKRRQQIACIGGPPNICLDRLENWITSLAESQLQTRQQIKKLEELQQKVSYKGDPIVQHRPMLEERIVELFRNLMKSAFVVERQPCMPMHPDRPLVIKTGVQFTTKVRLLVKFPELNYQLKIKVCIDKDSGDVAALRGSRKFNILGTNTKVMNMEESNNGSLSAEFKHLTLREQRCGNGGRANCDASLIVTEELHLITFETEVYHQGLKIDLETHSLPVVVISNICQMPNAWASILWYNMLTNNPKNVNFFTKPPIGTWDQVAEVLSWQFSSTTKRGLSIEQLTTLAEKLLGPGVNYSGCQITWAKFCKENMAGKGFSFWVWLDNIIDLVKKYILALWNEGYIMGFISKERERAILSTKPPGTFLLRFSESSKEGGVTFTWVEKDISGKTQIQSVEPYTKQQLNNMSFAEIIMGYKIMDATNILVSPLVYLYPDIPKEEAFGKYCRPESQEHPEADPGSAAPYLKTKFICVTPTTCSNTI
Procedure: STAT3 Fluorescence Polarization (FP) Assay
An FP assay was developed to determine IC50 values for test substances. Recombinant STAT3 protein (STAT3(G127-I722)) at 25 nM was combined with a fluorescently labeled, phosphotyrosine peptide probe (5-FAM-GpYLPQTV-NH2) at 2 nM in FP buffer (10 mM HEPES pH 7.4, 50 mM NaCl, 1 mM EDTA, 0.05% Tween 20.2 mM DTT). 50 μL of STAT3-probe mixture was added to serial diluted compounds in black, 96-well plates (Greiner BioOne 655076) to a final concentration of 1% DMSO. Reaction components were mixed, and FP was measured after 45-minute incubation at room temperature using a Tecan Spark multimode plate reader. FP signal (mP) was plotted against the log concentration of the test substances and IC50 values were calculated by nonlinear regression analysis using GraphPad Prism software. For STAT3 FP assay, A=≤100 nM; B=>100-1000 nM; C=>1-10 μM; and D=>10 μM.

[2] = target: T2, Recombinant STAT6 protein (STAT6(W123-T658)) (Homo sapiens, UniProt P42226); experiment: STAT6 Fluorescence Polarization (FP) Assay; format: binding; details: STAT6(W123-T658) 250 nM, probe 5-FAM-ApYKPFQDLI-NH2 2 nM, 45-minute incubation
T2 construct: Recombinant STAT6 protein (STAT6(W123-T658))
T2 sequence (P42226 123-658): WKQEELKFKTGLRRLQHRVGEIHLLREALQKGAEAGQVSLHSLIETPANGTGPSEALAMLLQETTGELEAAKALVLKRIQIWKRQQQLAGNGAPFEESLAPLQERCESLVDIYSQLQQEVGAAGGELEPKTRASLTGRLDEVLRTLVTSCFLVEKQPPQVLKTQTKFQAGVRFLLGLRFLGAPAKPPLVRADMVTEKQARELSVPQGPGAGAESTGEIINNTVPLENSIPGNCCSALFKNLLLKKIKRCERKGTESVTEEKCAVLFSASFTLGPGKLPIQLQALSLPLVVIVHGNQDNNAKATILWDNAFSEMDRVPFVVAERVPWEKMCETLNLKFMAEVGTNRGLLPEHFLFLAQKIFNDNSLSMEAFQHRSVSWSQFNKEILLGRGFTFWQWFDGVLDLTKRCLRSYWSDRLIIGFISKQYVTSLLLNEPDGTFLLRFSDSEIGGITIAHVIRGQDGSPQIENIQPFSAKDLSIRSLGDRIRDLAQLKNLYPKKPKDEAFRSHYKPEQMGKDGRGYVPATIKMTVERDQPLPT
Procedure: STAT6 Fluorescence Polarization (FP) Assay
An FP assay was developed to determine IC50 values for test substances. Recombinant STAT6 protein (STAT6(W123-T658)) at 250 nM was combined with a fluorescently labeled, phosphotyrosine peptide probe (5-FAM-ApYKPFQDLI-NH2) at 2 nM in FP buffer (10 mM HEPES pH 7.4, 50 mM NaCl, 1 mM EDTA, 0.05% Tween 20.2 mM DTT). 50 μL of STAT6-probe mixture was added to serial diluted compounds in black, 96-well plates (Greiner BioOne 655076) to a final concentration of 1% DMSO. Reaction components were mixed, and FP was measured after 45-minute incubation at room temperature using a Tecan Spark multimode plate reader. FP signal (mP) was plotted against the log concentration of the test substances and IC50 values were calculated by nonlinear regression analysis using GraphPad Prism software. For STAT6 FP assay, A=≤300 nM; B=>300-3000 nM; C=>3-30 μM; and D=>30 μM.

In the case of `COc1cc(C2CN(C(=O)[C@@H]3CC[C@@H]4CCN(C(C)=O)C[C@H](NC(=O)c5cc6cc(C(F)(F)P(=O)(O)O)ccc6s5)C(=O)N43)C[C@@H]2C#N)ccn1` (relative stereo) [Compound 148, ((2-(((5S,8S,10aR)-3-acetyl-8-((rel-trans)-3-cyano-4-(2-methoxypyridin-4-yl)pyrrolidine-1-carbonyl)-6-oxodecahydropyrrolo[1,2-a][1,5]diazocin-5-yl)carbamoyl)benzo[b]thiophen-5-yl)difluoromethyl)phosphonic acid], the pIC50 [1] was 5.00 to 6.00 and the pIC50 [2] was 5.52 to 6.52.

For `COc1cccc([C@@H]2CN(C(=O)[C@@H]3CC[C@@H]4CCN(C(C)=O)C[C@H](NC(=O)c5cc6cc(C(F)(F)P(=O)(O)O)ccc6s5)C(=O)N43)C[C@H]2C#N)c1` (relative stereo) [Compound 149, ((2-(((5S,8S,10aR)-3-acetyl-8-((rel-trans)-3-cyano-4-(3-methoxyphenyl)pyrrolidine-1-carbonyl)-6-oxodecahydropyrrolo[1,2-a][1,5]diazocin-5-yl)carbamoyl)benzo[b]thiophen-5-yl)difluoromethyl)phosphonic acid], the pIC50 [1] was 5.00 to 6.00 and the pIC50 [2] was ≥ 6.52.

With `CC(=O)N1CC[C@H]2CC[C@@H](C(=O)N3C[C@@H](C#N)[C@H](c4cccnc4)C3)N2C(=O)[C@@H](NC(=O)c2cc3cc(C(F)(F)P(=O)(O)O)ccc3s2)C1` (relative stereo) [Compound 150, ((2-(((5S,8S,10aR)-3-acetyl-8-((rel-trans)-3-cyano-4-(pyridin-3-yl)pyrrolidine-1-carbonyl)-6-oxodecahydropyrrolo[1,2-a][1,5]diazocin-5-yl)carbamoyl)benzo[b]thiophen-5-yl)difluoromethyl)phosphonic acid] the pIC50 [1] was 6.00 to 7.00 and the pIC50 [2] was ≥ 6.52.

With `CC(=O)N1CC[C@H]2CC[C@@H](C(=O)N3C[C@@H](C#N)[C@H](C4CCCCC4)C3)N2C(=O)[C@@H](NC(=O)c2cc3cc(C(F)(F)P(=O)(O)O)ccc3s2)C1` (relative stereo) [Compound 151, ((2-(((5S,8S,10aR)-3-acetyl-8-((rel-trans)-3-cyano-4-cyclohexylpyrrolidine-1-carbonyl)-6-oxodecahydropyrrolo[1,2-a][1,5]diazocin-5-yl)carbamoyl)benzo[b]thiophen-5-yl)difluoromethyl)phosphonic acid] the pIC50 [1] was 5.00 to 6.00 and the pIC50 [2] was 5.52 to 6.52.

With `CC(=O)N1CC[C@H]2CC[C@@H](C(=O)N3C[C@@H](C#N)[C@](C)(c4ccccc4)C3)N2C(=O)[C@@H](NC(=O)c2cc3cc(C(F)(F)P(=O)(O)O)ccc3s2)C1` (relative stereo) [Compound 152, ((2-(((5S,8S,10aR)-3-acetyl-8-((rel-trans)-4-cyano-3-methyl-3-phenylpyrrolidine-1-carbonyl)-6-oxodecahydropyrrolo[1,2-a][1,5]diazocin-5-yl)carbamoyl)benzo[b]thiophen-5-yl)difluoromethyl)phosphonic acid] the pIC50 [1] was 5.00 to 6.00 and the pIC50 [2] was ≥ 6.52.

For `CC(=O)N1CC[C@H]2CC[C@@H](C(=O)N3C[C@@H](C#N)C[C@H](c4ccccc4)C3)N2C(=O)[C@@H](NC(=O)c2cc3cc(C(F)(F)P(=O)(O)O)ccc3s2)C1` (relative stereo) [Compound 153, ((2-(((5S,8S,10aR)-3-acetyl-8-((rel-trans)-3-cyano-5-phenylpiperidine-1-carbonyl)-6-oxodecahydropyrrolo[1,2-a][1,5]diazocin-5-yl)carbamoyl)benzo[b]thiophen-5-yl)difluoromethyl)phosphonic acid], the pIC50 [1] was 5.00 to 6.00 and the pIC50 [2] was 5.52 to 6.52.

For `CC(=O)N1CC[C@H]2CC[C@@H](C(=O)N3CC[C@@H](c4ccccc4)[C@H](C#N)C3)N2C(=O)[C@@H](NC(=O)c2cc3cc(C(F)(F)P(=O)(O)O)ccc3s2)C1` (relative stereo) [Compound 154, ((2-(((5S,8S,10aR)-3-acetyl-8-((rel-trans)-3-cyano-4-phenylpiperidine-1-carbonyl)-6-oxodecahydropyrrolo[1,2-a][1,5]diazocin-5-yl)carbamoyl)benzo[b]thiophen-5-yl)difluoromethyl)phosphonic acid], the pIC50 [1] was 5.00 to 6.00 and the pIC50 [2] was 5.52 to 6.52.

In the case of `CC(=O)N1CC[C@H]2CC[C@@H](C(=O)N3C[C@H](c4ccccc4)[C@@H](C#N)C3)N2C(=O)[C@@H](NC(=O)c2ccc3ccc(C(F)(F)P(=O)(O)O)cc3c2)C1` (relative stereo) [Compound 203, ((7-(((5S,8S,10aR)-3-acetyl-8-(rel-trans)-3-cyano-4-phenylpyrrolidine-1-carbonyl)-6-oxodecahydropyrrolo[1,2-a][1,5]diazocin-5-yl)carbamoyl)naphthalen-2-yl)difluoromethyl)phosphonic acid], the pIC50 [1] was 5.00 to 6.00 and the pIC50 [2] was ≥ 6.52.

`CC(=O)N1CC[C@H]2CC[C@@H](C(=O)N3C[C@@H](C#N)[C@@H]3c3ccccc3)N2C(=O)[C@@H](NC(=O)c2cc3cc(C(F)(F)P(=O)(O)O)ccc3s2)C1` (relative stereo) [Compound 204, ((2-(((5S,8S,10aR)-3-acetyl-8-((rel-trans)-3-cyano-2-phenylazetidine-1-carbonyl)-6-oxodecahydropyrrolo[1,2-a][1,5]diazocin-5-yl)carbamoyl)benzo[b]thiophen-5-yl)difluoromethyl)phosphonic acid] showed a pIC50 [1] of 6.00 to 7.00 and a pIC50 [2] of 5.52 to 6.52.

With `CC(=O)N1CC[C@H]2CC[C@@H](C(=O)N3C[C@H](C#N)C[C@@H]3c3ccccc3)N2C(=O)[C@@H](NC(=O)c2cc3cc(C(F)(F)P(=O)(O)O)ccc3s2)C1` (relative stereo) [Compound 205, ((2-(((5S,8S,10aR)-3-acetyl-8-((rel-cis)-4-cyano-2-phenylpyrrolidine-1-carbonyl)-6-oxodecahydropyrrolo[1,2-a][1,5]diazocin-5-yl)carbamoyl)benzo[b]thiophen-5-yl)difluoromethyl)phosphonic acid] the pIC50 [1] was 5.00 to 6.00 and the pIC50 [2] was 5.52 to 6.52.

With `CC(=O)N1CC[C@H]2CC[C@@H](C(=O)N3C[C@H](C#N)C[C@H]3c3ccccc3)N2C(=O)[C@@H](NC(=O)c2cc3cc(C(F)(F)P(=O)(O)O)ccc3s2)C1` (relative stereo) [Compound 206, ((2-(((5S,8S,10aR)-3-acetyl-8-((rel-trans)-4-cyano-2-phenylpyrrolidine-1-carbonyl)-6-oxodecahydropyrrolo[1,2-a][1,5]diazocin-5-yl)carbamoyl)benzo[b]thiophen-5-yl)difluoromethyl)phosphonic acid] the pIC50 [1] was 5.00 to 6.00 and the pIC50 [2] was 5.52 to 6.52.

Work on `CC(=O)N1CC[C@H]2CC[C@@H](C(=O)N3CC[C@H](C#N)[C@H]3c3ccccc3)N2C(=O)[C@@H](NC(=O)c2cc3cc(C(F)(F)P(=O)(O)O)ccc3s2)C1` (relative stereo) [Compound 207, ((2-(((5S,8S,10aR)-3-acetyl-8-((rel-trans)-3-cyano-2-phenylpyrrolidine-1-carbonyl)-6-oxodecahydropyrrolo[1,2-a][1,5]diazocin-5-yl)carbamoyl)benzo[b]thiophen-5-yl)difluoromethyl)phosphonic acid] yielded a pIC50 [1] of 5.00 to 6.00 and a pIC50 [2] of 5.52 to 6.52.

In the case of `N#C[C@H]1CN(C(=O)[C@@H]2CC[C@@H]3CN(C(c4ccccc4)c4ccccc4)CC[C@H](NC(=O)c4ccc5ccc(C(F)(F)P(=O)(O)O)cc5c4)C(=O)N32)C[C@@H]1c1ccccc1` (relative stereo) [Compound 209, ((7-(((5S,8S,10aR)-2-benzhydryl-8-((rel-trans)-3-cyano-4-phenylpyrrolidine-1-carbonyl)-6-oxodecahydropyrrolo[1,2-a][1,4]diazocin-5-yl)carbamoyl)naphthalen-2-yl)difluoromethyl)phosphonic acid], the pIC50 [1] was 5.00 to 6.00 and the pIC50 [2] was 5.52 to 6.52.
